Test results taken from US5198445A, “Composition and use of substituted 3-thio-2-propynenitriles as industrial antimicrobials” (The Dow Chemical Company, priority 1992, dated 1993).
Converted amounts (≈) assume the structure as drawn. Like-named read-outs stand apart in the source and are kept apart here.

Columns and labels:
Escherichia coli (Ec) = assay: MIC in nutrient agar, Escherichia coli; type: cell-based, Escherichia coli ATCC 11229
Method: (§1) The minimum inhibitory concentration (MIC) for the compounds listed in Table I is determined for 9 bacteria, using nutrient agar, and 7 yeast and fungi, using malt yeast agar. A one percent solution of the test compound is prepared in a mixture of acetone and water. Nutrient agar is prepared at pH 6.8, representing a neutral medium, and at pH 8.2, representing an alkaline medium. The nutrient agars are prepared by adding 23 g of nutrient agar to one-liter of deionized water. In addition, the alkaline medium is prepared by adjusting a 0.04M solution of N-[tris-(hydroxymethyl)methyl]-glycine buffered deionized water with concentrated sodium hydroxide to a pH of […]. Malt yeast agar is prepared by adding 3 g yeast extract and 45 g malt agar per liter of deionized water. The specific agar is dispensed in 30 ml aliquots into 25×200 mm test tubes, capped and autoclaved for 15 minutes at 115° C. The test tubes containing the agar are cooled in a water bath until the temperature of the agar is 48° C. Then, an appropriate amount of the one percent solution of the test compound is added (except in the controls where no compound is added) to the respective test tubes so that the final concentrations are 500, 250, 100, 50, 25, 10, 5, 2.5, 1.0 and zero parts per million of the test compound in the agar, thus having a known concentration of test compound dispersed therein. The contents of the test tubes are then transferred to respective petri plates. After drying for 24 hours, the petri plates containing nutrient agar are inoculated with bacteria and those containing malt yeast agar are inoculated with yeast and fungi.
(§2) The inoculation with bacteria is accomplished by using the following procedure. Twenty-four hour-cultures of each of the bacteria are prepared by incubating the respective bacteria in tubes containing nutrient broth for 24 hours at 30° C. in a shaker. Dilutions of each of the 24 hour-cultures are made so that nine separate suspensions (one for each of the nine test bacteria) are made, each containing 10^8 colony forming units (CFU) per ml of suspension of a particular bacteria. Aliquots of 0.3 ml of each of the bacterial suspensions are used to fill the individual wells of Steer's Replicator. For each microbial suspension, 0.3 ml was used to fill three wells (i.e., three wells of 0.3 ml each) so that for the nine different bacteria, 27 wells are filled. The Steer's Replicator is then used to inoculate both the neutral and alkaline pH nutrient agar petri plates.
(§3) The inoculated petri plates are incubated at 30° C. for 48 hours and then read to determine if the test compound which is incorporated into the agar prevented growth of the respective bacteria.
(§4) Table II lists the bacteria, yeast and fungi used in the MIC test described above along with their respective American Type Culture Collection (ATCC) identification numbers.
(§5) The following MIC and MEC antimicrobial tests, whose results are shown in Tables XIII-XVII, are performed using the same methods as described hereinabove.

[1] = test system: mixture of the bacterial organisms listed in Table II; assay: Multiple Challenge Test in hand lotion formulation; type: cell-based, bacteria listed in Table II; settings: 10 challenges
Method: (§6) Additionally, the ability of the compounds of Table I to serve as preservatives in a variety of formulated industrial, household, and commercial products is tested using a Multiple Challenge Test Protocol. In this test, the formulations include a styrene-butadiene latex, a tape joint, a hand lotion, and a shampoo. The styrene-butadiene latex test formulation used is Latex DL 238A, available from The Dow Chemical Company. The compositions of the tape joint, hand lotion and shampoo test formulations can be found in Tables V-VII.
(§7) The formulations are separated into 50 g aliquots and placed in sterile bottles. An appropriate amount of a fresh one percent stock solution of the test compound in acetone-water is added to achieve the desired final concentrations. A small portion of each of the test formulations is streaked onto Tryptic Soy Agar (TSA) petri plates using sterile cotton swabs to ensure that the formulations are sterile. If the formulation is sterile, then it is inoculated with 0.1 ml of a mixture of equal aliquots of the 24 hour cultures of each of the bacterial organisms listed in Table II. The test formulations are then incubated at 30° C. After 24 hours, each sample is streaked onto a TSA petri plate using a sterile swab. All plates are then incubated at 30° C. for 48 hours and then rated for microbial growth using the rating system listed in Table VIII. Samples with a rating of 3 or less are reinoculated as described in the procedure for the first inoculation. Samples with a rating of 4 or greater are not reinoculated but after another 24 hours are restreaked on TSA agar.
(§8) The normal interpretation of the results is that a concentration of the antimicrobial being tested is considered to be effective if no ratings greater than a 3 are observed throughout the 10 challenges. The Minimum Effective Concentration (MEC), which is used to compare the activity of the antimicrobial additives in the end-use formulations, is the minimum level that is effective under the conditions of the Multiple Challenge Test.

Fusarium oxysporum (Fo) = assay: MIC in malt yeast agar, Fusarium oxysporum; type: cell-based, Fusarium oxysporum ATCC 48112; settings: read-out: Minimum Inhibitory Concentration, Fo
Method: as §1
(§9) The inoculation with the yeast and fungi is accomplished as follows. Cultures of yeast and fungi are incubated for seven days on malt yeast agar at 30° C. These cultures are used to prepare suspensions by the following procedure. A suspension of each organism is prepared by adding 10 ml of sterile saline and 10 microliters of octylphenoxy polyethoxy ethanol (TRITON® X-100, a trademark of Rohm & Haas Company) to the agar slant of yeast or fungi. The sterile saline/octylphenoxy polyethoxy ethanol solution is then agitated with a sterile swab to suspend the microorganism grown on the slant. Each resulting suspension is diluted into sterile saline (1 part suspension: 9 parts sterile saline). Aliquots of these dilutions are placed in individual wells of Steer's Replicator and petri plates inoculated as previously described. The petri plates are incubated at 30° C. and read after 48 hours for yeast and 72 hours for fungi.
as §4, §5

[2] = test system: Salmonella choleraesuis (Sc); assay: MIC in nutrient agar, Salmonella choleraesuis; type: cell-based, Salmonella choleraesuis ATCC 10708
Method: as §1, §2, §3, §4, §5

[3] = test system: Enterobacter aerogenes (Ea); assay: MIC in nutrient agar, Enterobacter aerogenes; type: cell-based, Enterobacter aerogenes ATCC 13048
Method: as §1, §2, §3, §4, §5

[4] = test system: mixture of the bacterial organisms listed in Table II; assay: Multiple Challenge Test in shampoo formulation; type: cell-based, bacteria listed in Table II; settings: 10 challenges
Method: as §6, §7, §8

Aspergillus niger (An) = assay: MIC in malt yeast agar, Aspergillus niger; type: cell-based, Aspergillus niger ATCC 16404; settings: read-out: Minimum Inhibitory Concentration, An
Method: as §1, §9, §4, §5

Trichoderma viride (Tv) = assay: MIC in malt yeast agar, Trichoderma viride; type: cell-based, Trichoderma viride ATCC 8678; settings: read-out: Minimum Inhibitory Concentration, Tv
Method: as §1, §9, §4, §5

Bacillus subtilis (Bs) = assay: MIC in nutrient agar, Bacillus subtilis; type: cell-based, Bacillus subtilis ATCC 8473
Method: as §1, §2, §3, §4, §5

[5] = Escherichia coli, pH 6.8; read-out: Minimum Inhibitory Concentration, Ec
[6] = Escherichia coli, pH 8.2, read-out: Minimum Inhibitory Concentration, Ec
[7] = Salmonella enterica, CHOLERAESUIS, pH 6.8; read-out: Minimum Inhibitory Concentration, Sc
[8] = Salmonella enterica, CHOLERAESUIS, pH 8.2; read-out: Minimum Inhibitory Concentration, Sc
[9] = Klebsiella aerogenes, pH 6.8, read-out: Minimum Inhibitory Concentration, Ea
[10] = Klebsiella aerogenes, pH 8.2; read-out: Minimum Inhibitory Concentration, Ea
[11] = Bacillus subtilis, pH 6.8; read-out: Minimum Inhibitory Concentration, Bs
[12] = Bacillus subtilis, pH 8.2, read-out: Minimum Inhibitory Concentration, Bs
[13] = Escherichia coli, pH 8.2; read-out: Minimum Inhibitory Concentration, Ec
[14] = Klebsiella aerogenes, pH 6.8; read-out: Minimum Inhibitory Concentration, Ea
[15] = Bacillus subtilis, pH 6.8, read-out: Minimum Inhibitory Concentration, Bs
[16] = Bacillus subtilis, pH 8.2; read-out: Minimum Inhibitory Concentration, Bs

Structure (SMILES) | MIC (Escherichia coli (Ec); [5]) [µg/mL] | MIC (Escherichia coli (Ec); [6]) [µg/mL] | MEC [1] [ppm] | MIC (Fusarium oxysporum (Fo); malt yeast agar) [µg/mL] | MIC [2, 7] [µg/mL] | MIC [2, 8] [µg/mL] | MIC [3, 9] [µg/mL] | MIC [3, 10] [µg/mL] | MEC [4] [ppm] | MIC (Aspergillus niger (An); malt yeast agar) [µg/mL] | MIC (Trichoderma viride (Tv)) [µg/mL] | MIC (Bacillus subtilis (Bs); [11]) [µg/mL] | MIC (Bacillus subtilis (Bs); [12]) [µg/mL] | MIC (Escherichia coli (Ec); [13]) [µg/mL] | MIC [3, 14] [µg/mL] | MIC (Trichoderma viride (Tv); malt yeast agar) [µg/mL] | MIC (Bacillus subtilis (Bs); [15]) [µg/mL] | MIC (Bacillus subtilis (Bs); [16]) [µg/mL] | also measured
CCSC#CC#N [B, 3-ethylthio-2-propynenitrile] | 5 (≈ 45 µM) | 10 (≈ 90 µM) | 25 | < 1 | 5 (≈ 45 µM) | 10 (≈ 90 µM) | 25 (≈ 225 µM) | 25 (≈ 225 µM) | 25 | 2.5 (≈ 22.5 µM) | 10 (≈ 90 µM) | 25 (≈ 225 µM) | 25 (≈ 225 µM) | – | – | – | – | – | –
N#CC#CSC1CCCC1 [C, 3-cyclopentylthio-2-propynenitrile] | < 10 | – | 250 | < 1 | < 10 | 25 (≈ 165 µM) | – | 100 (≈ 661 µM) | 100 | 2.5 (≈ 16.5 µM) | – | – | – | < 10 | 100 (≈ 661 µM) | 2.5 (≈ 16.5 µM) | 100 (≈ 661 µM) | 250 (≈ 1650 µM) | –
CSC#CC#N [Compound A, 3-methylthio-2-propynenitrile] | 2.5 (≈ 25.7 µM) | – | 10 | 0.5 (≈ 5.15 µM) | 2.5 (≈ 25.7 µM) | 5 (≈ 51.5 µM) | – | 25 (≈ 257 µM) | 10 | 2.5 (≈ 25.7 µM) | – | 2.5 (≈ 25.7 µM) | – | 5 (≈ 51.5 µM) | 2.5 (≈ 25.7 µM) | 0.25 (≈ 2.57 µM) | – | 5 (≈ 51.5 µM) | Minimum Inhibitory Concentration, Ec (Escherichia coli (Ec); pH 8.2): 5 ppm; Minimum Inhibitory Concentration, Sc ([2]; pH 8.2): 5 ppm; Minimum Inhibitory Concentration, Bs (Bacillus subtilis (Bs); pH 8.2): 5 ppm
CSC=C(Cl)C#N [Compound G, 2-chloro-3-(methylthio)-2-propenenitrile] | – | 10 (≈ 74.8 µM) | – | – | – | – | 50 (≈ 374 µM) | – | – | – | 100 (≈ 748 µM) | – | 10 (≈ 74.8 µM) | – | – | – | 75 (≈ 561 µM) | – | MIC (Escherichia coli (Ec); Escherichia coli, pH 6.8, read-out: Minimum Inhibitory Concentration, Ec): 50 µg/mL (≈ 374 µM); MIC (Fusarium oxysporum (Fo)): 50 µg/mL (≈ 374 µM); MIC ([2]; Salmonella enterica, CHOLERAESUIS, pH 6.8, read-out: Minimum Inhibitory Concentration, Sc): 50 µg/mL (≈ 374 µM); MIC ([2]; Salmonella enterica, CHOLERAESUIS, pH 8.2, read-out: Minimum Inhibitory Concentration, Sc): 5 µg/mL (≈ 37.4 µM); MIC ([3]; Klebsiella aerogenes, pH 8.2, read-out: Minimum Inhibitory Concentration, Ea): 10 µg/mL (≈ 74.8 µM); MIC (Aspergillus niger (An)): 50 µg/mL (≈ 374 µM)
N#CC#CSc1ccc(Cl)cc1 [D, 3-(4-chlorophenylthio)-2-propynenitrile] | < 10 | – | 250 | < 1 | < 10 | 50 (≈ 258 µM) | – | 50 (≈ 258 µM) | 100 | < 1 | – | < 10 | – | 50 (≈ 258 µM) | < 10 | 2.5 (≈ 12.9 µM) | – | 50 (≈ 258 µM) | –
